Assay: gradient 5% acetonitrile 3 min, to 50% in 2 min, to 85% in 15 min, held 3 min, 100 µL/min
Details: column: Zorbax Extend-C18 2.1 x 50 mm; eluents: water / acetonitrile, 0.1% formic acid
Outline: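 Data were gathered over 3 months by HPLC coupled to a quadrupole time-of-flight mass spectrometer, operated in positive and negative ionization mode. Mixtures of ~100 pure standards ran on a Zorbax Extend-C18 column (2.1 × 50 mm, 1.8 μm) at 100 μL/min, with water and acetonitrile each containing 0.1% formic acid and dead and dwell volumes of 40 μL and 900 μL. Retention time was read from adduct peaks picked by computer and checked manually.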

Row | SMILES | RP-LC retention time [s]
1 | Cc1cc(C)n(-c2ccc(C(=O)NCCCN3CCCC3=O)nn2)n1 | 637
2 | Cc1nnc(CNC(=O)C(=O)Nc2ccon2)o1 | 534
3 | Nc1ncnc2c1nnn2C1OC(CO)C(O)C1O (centres undefined) | 513
4 | Cc1ccc2ncc(C(=O)NCCCOC(C)C)c(=O)n2c1 | 656
5 | CCOC(=O)c1cnc2c(C)cc(C)cc2c1NCCCN(C)C | 565
6 | Cc1ccc(CNC(=O)CN2C(=O)C3CCCCN3c3ccc(S(=O)(=O)N4CCCC4)cc32)o1 (centres undefined) | 905
7 | COCc1noc([C@@H]2CC(F)(F)CN2C(=O)c2occc2C)n1 | 788
8 | COc1ccc(-c2cc(C(=O)N3CCN(C)CC3)nn2C2CCS(=O)(=O)C2)cc1 (centres undefined) | 613
9 | Cc1nnc(-c2cc(NS(C)(=O)=O)c(C)s2)o1 | 697
10 | CCCN(CCC)[C@@H]1CCc2ccc(O)cc2C1 | 671
11 | O=C(NCc1ccc(F)cc1Cl)c1cn(-c2cc(N3CCOCC3)ncn2)cn1 | 840
12 | Clc1ccc(C(Cn2ccnc2)OCc2csc3c(Cl)cccc23)c(Cl)c1 (centres undefined) | 974
13 | c1ccc(-c2n[nH]c(C3CCCN(Cc4ccoc4)C3)n2)cc1 (centres undefined) | 531
14 | Cc1cccc(NC(=O)N2CCCC2C(=O)N(C)C)c1 (centres undefined) | 643
15 | COCc1c(C(=O)O)nnn1-c1cccc(C(F)(F)F)c1 | 760
16 | CCc1cccc(N(C)C(N)=Nc2cccc3ccccc23)c1 | 846
17 | CN1C(=O)C2(CCN(C(=O)Cc3ccc(Cl)cc3)C2)c2ccccc21 (centres undefined) | 872
18 | Cc1sc2ccn(CC(C)C)c(=O)c2c1C(=O)NCc1cc(F)cc(F)c1 | 1070
19 | COc1ccc(NC(=O)CSc2nc3ccccc3o2)c(OC)c1 | 896
20 | CCCCNC(=O)Cn1c(N)nc(CC)cc1=O | 579

Row | SMILES | RP-LC retention time [s]
21 | Cn1nc(-c2nc(C3CC3)no2)c2c1CCN(S(=O)(=O)c1cccc(Cl)c1)C2 | 1000
22 | COc1ccc(NC(=O)c2c(O)c3cccnc3n(-c3ccc(F)cc3)c2=O)cc1F | 1210
23 | COc1ccc(-n2ccc(=O)c(-c3nc(-c4cccc(OC)c4OC)no3)n2)cc1 | 824
24 | COC(=O)c1ccc(C2CC(=O)Nc3c(-c4ccc(OC)cc4)csc32)cc1 (centres undefined) | 1000
25 | COc1cccc(NC(=O)c2cc(C)n3nccc3n2)c1 | 874
26 | O=C(Nc1ccc(C(F)(F)F)cc1)C1CCCN(S(=O)(=O)c2c[nH]c(C(=O)N3CCCC3)c2)C1 (centres undefined) | 908
27 | O=C1CC(C(=O)N2CCCCCC2)CN1CCc1ccccc1 (centres undefined) | 760
28 | CCOC(=O)c1ccc(NC(=O)C2CCCN(S(=O)(=O)c3cc(OC)ccc3OC)C2)cc1 (centres undefined) | 975
29 | CCn1cc(C(=O)Nc2cccc(Cl)c2)c2cccnc21 | 938
30 | CCCCOC(=O)c1ccc(NC(=O)c2c(OCC)cc(=O)n3c2CCCC3)cc1 | 910
31 | CC(NC(=O)C1CCc2nc(N3CCOCC3)ncc2C1)c1ccco1 (centres undefined) | 630
32 | CCC(C)N(CCNC(=O)Cc1noc2ccc(C)cc12)Cc1ccco1 (centres undefined) | 682
33 | CCC1CN(C(=O)N2CCC(C(=O)NCCCN3CCN(C)CC3)CC2)c2ccccc2O1 (centres undefined) | 592
34 | CCOc1ccc(CNC(=O)Cc2cn(C)c3ncccc23)cc1 | 698
35 | Cc1nc(-c2cn(C(C)C)c3ncccc23)sc1C(=O)NCCC(C)C | 1070
36 | CCNC(=O)c1nc(C(=O)NC2CC2)cs1 | 631
37 | Cc1cc(NC(=O)C2CCCN(C(=O)C3Sc4ccccc4NC3=O)C2)ccc1Br (centres undefined) | 901
38 | Cc1ccc(NC(=O)Cn2c(C)nc3onc(C)c3c2=O)c(C)c1 | 800
39 | NC(=O)[C@H]1CCCCc2c1[nH]c1ccc(Cl)cc21 | 819
